Key:
[1] = test system: definitive endoderm cells vs hESCs; assay: Gene chip analysis (Affymetrix U133 Plus 2.0) of purified definitive endoderm compared to hESCs; assay type: cell-based, human
Experimental: In the following experiment, RNA was isolated from purified definitive endoderm and human embryonic stem cell populations. Gene expression was then analyzed by gene chip analysis of the RNA from each purified population. Q-PCR was also performed to further investigate the potential of genes expressed in definitive endoderm, but not in embryonic stem cells, as a marker for definitive endoderm. Human embryonic stem cells (hESCs) were maintained in DMEM/F12 media supplemented with 20% KnockOut Serum Replacement, 4 ng/mL recombinant human basic fibroblast growth factor (bFGF), 0.1 mM 2-mercaptoethanol, L-glutamine, non-essential amino acids and penicillin/streptomycin. hESCs were differentiated to definitive endoderm by culturing for 5 days in RPMI media supplemented with 100 ng/mL of recombinant human activin A, fetal bovine serum (FBS), and penicillin/streptomycin. The concentration of FBS was varied each day as follows: 0.1% (first day), 0.2% (second day), 2% (days 3-5). Cells were isolated by fluorescence activated cell sorting (FACS) in order to obtain purified populations of hESCs and definitive endoderm for gene expression analysis. […] Cells were dissociated using trypsin/EDTA (Invitrogen, cat#25300-054), washed in phosphate buffered saline (PBS) containing 2% human serum and resuspended in 100% human serum on ice for 10 minutes to block non-specific binding. Staining was carried out for 30 minutes on ice by adding 200 uL of phycoerythrin-conjugated antibody to 5×10^6 cells in 800 uL human serum. Cells were washed twice with 8 mL of PBS buffer and resuspended in 1 mL of the same. FACS isolation was carried out by the core facility of The Scripps Research Institute using a FACS Vantage (BD Biosciences). Cells were collected directly into RLT lysis buffer and RNA was isolated by RNeasy according to the manufacturers instructions (Qiagen). Purified RNA was submitted in duplicate to Expression Analysis (Durham, N.C.) for generation of the expression profile data using the Affymetrix platform and U133 Plus 2.0 high-density oligonucleotide arrays. Data presented is a group comparison that identifies genes differentially expressed between the two populations, hESCs and definitive endoderm. […] The “Gene_Symbol” column refers to the unique name given to the gene by the HUGO Gene Nomenclature Committee. The “Raw Fold Change” column refers to the fold difference in signal for each gene in definitive endoderm compared to hESCs. The “Unigene,” “LocusLink,” and “OMIM” columns refer to identifiers that are descriptive and functional annotations derived from current National Center for Biotechnology Information (NCBI) releases of the UniGene, LocusLink, OMIM, and HomoloGene publicly available databases. […]

[2] = test system: human definitive endoderm cells; assay: Differentiation factor screening: Q-PCR of albumin, PROX1 and TITF1; assay type: cell-based
Experimental: To exemplify the differentiation factor screening methods described herein, populations of human definitive endoderm cells produced using the methods described herein were separately provided with several candidate differentiation factors while determining the normalized expression levels of certain marker gene products at various time points.
Human definitive endoderm cells were produced as described in the foregoing Examples. In brief, hESCs cells were grown in the presence of 100 ng/ml activin A in low serum RPMI medium for four days, wherein the fetal bovine serum (FBS) concentration on day 1 was 0%, on day 2 was 0.2% and on days 3-4 was 2%. After formation of definitive endoderm, beginning on day 5 and ending on day 10, cell populations maintained in individual plates in RPMI containing 0.2% FBS were treated with one of: Wnt3A at 20 ng/ml, FGF2 at 5 ng/ml or FGF2 at 100 ng/ml. The expression of marker gene products for albumin, PROX1 and TITF1 were quantitated using Q-PCR.

[3] = test system: definitive endoderm cells; assay: Maintenance and expansion of definitive endoderm cells in culture in the presence of activin; assay type: cell-based, human
Source text: Definitive endoderm cells produced by methods described herein have been maintained and expanded in culture in the presence of activin for greater than 50 days without appreciable differentiation. In such cases, SOX17, CXCR4, MIXL1, GATA4, HNF3β expression is maintained over the culture period. Additionally, TM, SPARC, OCT4, AFP, SOX7, ZIC1 and BRACH were not detected in these cultures. It is likely that such cells can be maintained and expanded in culture for substantially longer than 50 days without appreciable differentiation.

hESCs (hESCyt-25) = assay: Q-PCR gene expression assay of marker genes in differentiating hESCs; assay type: cell-based, human; conditions: Wnt3a added to activin A and activin B treated cultures; FIG. 23
Experimental: In the following experiments, real-time quantitative RT-PCR (Q-PCR) was the primary assay used for screening the effects of various treatments on HESC differentiation. In particular, real-time measurements of gene expression were analyzed for multiple marker genes at multiple time points by Q-PCR. Marker genes characteristic of the desired as well as undesired cell types were evaluated to gain a better understanding of the overall dynamics of the cellular populations. The strength of Q-PCR analysis includes its extreme sensitivity and relative ease of developing the necessary markers, as the genome sequence is readily available. Furthermore, the extremely high sensitivity of Q-PCR permits detection of gene expression from a relatively small number of cells within a much larger population. In addition, the ability to detect very low levels of gene expression provides indications for “differentiation bias” within the population. The bias towards a particular differentiation pathway, prior to the overt differentiation of those cellular phenotypes, is unrecognizable using immunocytochemical techniques. […] Additionally, Q-PCR provides a mechanism by which to evaluate the success of a differentiation protocol in a quantitative format at semi-high throughput scales of analysis.
The approach taken here was to perform relative quantitation using SYBR Green chemistry on a Rotor Gene 3000 instrument (Corbett Research) and a two-step RT-PCR format. Such an approach allowed for the banking of cDNA samples for analysis of additional marker genes in the future, thus avoiding variability in the reverse transcription efficiency between samples.
Primers were designed to lie over exon-exon boundaries or span introns of at least 800 bp when possible, as this has been empirically determined to eliminate amplification from contaminating genomic DNA.
We routinely used Q-PCR to measure the gene expression of multiple markers of target and non-target cell types in order to provide a broad profile description of gene expression in cell samples. The markers relevant for the early phases of hESC differentiation (specifically ectoderm, mesoderm, definitive endoderm and extra-embryonic endoderm) and for which validated primer sets are available are provided below in Table 1. […] This is an important fact since the hESCs were often grown on mouse feeder layers. Most typically, triplicate samples were taken for each condition and independently analyzed in duplicate to assess the biological variability associated with each quantitative determination.
To generate PCR template, total RNA was isolated using RNeasy (Qiagen) and quantitated using RiboGreen (Molecular Probes). Reverse transcription from 350-500 ng of total RNA was carried out using the iScript reverse transcriptase kit (BioRad), which contains a mix of oligo-dT and random primers. Each 20 μL reaction was subsequently diluted up to 100 μL total volume and 3 μL was used in each 10 μL Q-PCR reaction containing 400 nM forward and reverse primers and 5 μL 2×SYBR Green master mix (Qiagen). Two step cycling parameters were used employing a 5 second denature at 85-94° C. (specifically selected according to the melting temp of the amplicon for each primer set) followed by a 45 second anneal/extend at 60° C. Fluorescence data was collected during the last 15 seconds of each extension phase. A three point, 10-fold dilution series was used to generate the standard curve for each run and cycle thresholds (Ct's) were converted to quantitative values based on this standard curve. The quantitated values for each sample were normalized to housekeeping gene performance and then average and standard deviations were calculated for triplicate samples. At the conclusion of PCR cycling, a melt curve analysis was performed to ascertain the specificity of the reaction. A single specific product was indicated by a single peak at the Tm appropriate for that PCR amplicon. […]

[4] = fold difference in gene chip signal (Affymetrix U133 Plus 2.0) for each gene in CXCR4-purified definitive endoderm (5 days, 100 ng/mL activin A) compared to SSEA4-purified hESCs
[5] = fold difference in signal for each gene in definitive endoderm (CXCR4-purified, 5 days 100 ng/mL activin A) compared to hESCs (SSEA4-purified), Affymetrix U133 Plus 2.0

For APOA1, the “Raw Fold Change” value [1, 4] was 15.05 fold.

For BMP2, the “Raw Fold Change” value [1, 4] was 7.76 fold.

With “FGF2: growth factor; candidate differentiation factor” the “expression of the TITF1 marker gene as compared to definitive endoderm cells on day 4” value ([2]; 100 ng/ml FGF2, days 7, 9 and 10, FIG. 36C) was “substantially increased”, the “expression of the TITF1 gene product as compared to untreated definitive endoderm” value ([2]; FGF2 at 5 ng/ml, FIG. 36C) was “very little effect” and the “expression of the albumin gene product as compared to definitive endoderm cells on day 4” value ([2]; FGF2 at 5 ng/ml, days 9 and 10, FIG. 36A) was “substantially increased”. The “expression of the albumin gene product as compared to definitive endoderm cells on day 4” value ([2]; FGF2 at 100 ng/ml, days 9 and 10, FIG. 36A) was “not increased”.

For NODAL, the “Raw Fold Change” value [1, 5] was 7.89 fold.

For NPPB, the “Raw Fold Change” value [1, 5] was 35.43 fold.

For activin, the “time definitive endoderm cells maintained and expanded in culture without appreciable differentiation” value [3] was “greater than 50 days”.

B1: Wnt3A: Wnt family growth factor; candidate differentiation factor (protein, UniProt P56704 19-352, looked up)
Protein Wnt-3a: SYPIWWSLAVGPQYSSLGSQPILCASIPGLVPKQLRFCRNYVEIMPSVAEGIKIGIQECQHQFRGRRWNCTTVHDSLAIFGPVLDKATRESAFVHAIASAGVAFAVTRSCAEGTAAICGCSSRHQGSPGKGWKWGGCSEDIEFGGMVSREFADARENRPDARSAMNRHNNEAGRQAIASHMHLKCKCHGLSGSCEVKTCWWSQPDFRAIGDFLKDKYDSASEMVVEKHRESRGWVETLRPRYTYFKVPTERDLVYYEASPNFCEPNPETGSFGTRDRTCNVSSHGIDGCDLLCCGRGHNARAERRREKCRCVFHWCCYVSCQECTRVYDVHTCK
For B1, the “expression of the albumin gene product as compared to untreated definitive endoderm cells” value ([2]; 20 ng/ml Wnt3A, days 9 and 10, FIG. 36A) was “increased” and the “SOX17 gene expression over that of activins alone” value (hESCs (hESCyt-25)) was “increases”.
